How the values were obtained:
[1] = molecular target: T1, human type PPARγ ligand-binding domain fused with DNA-binding domain of yeast transcription factor (Homo sapiens, UniProt P37231); experiment: Test of transactivation on PPAR (luciferase reporter, CHO cells), PPARγ; assay type: cell-based; details: luciferase activity after 24 hours, corrected with Renilla internal standard
T1 construct: expressed in transfected cells; host or cells: CHO cells
T1 sequence (P37231 238-503 limits assumed): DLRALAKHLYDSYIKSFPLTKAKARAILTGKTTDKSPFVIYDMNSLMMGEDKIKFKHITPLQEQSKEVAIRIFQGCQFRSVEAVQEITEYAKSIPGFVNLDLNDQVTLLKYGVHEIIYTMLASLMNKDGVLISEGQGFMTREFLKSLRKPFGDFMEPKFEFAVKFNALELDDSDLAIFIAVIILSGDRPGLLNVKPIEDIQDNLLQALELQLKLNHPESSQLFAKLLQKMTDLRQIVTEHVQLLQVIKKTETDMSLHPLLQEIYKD
Excerpt: (§1) <Test of Transactivation on Peroxisome Proliferator-Activated Receptor (PPAR)
(§2) To CHO cells cultured in a Dulbecco-modified Eagle's medium containing 10% delipidated fetal calf serum (FCS/DMEM), receptor plasmid and its reporter plasmid (STRATAGENE Corp.) that manifest fused protein of DNA-binding domain being transcription factor of yeast with each ligand-binding domain of human type PPAR (Biochemistry, 1993, 32, 5598), and luciferase plasmid of Renilla (PROMEGA Corp.) for internal standard were cotransfected with lipofectamine in the serum-free state. Thereafter, testing compound was added to the 10% SFCS/DMEM and both luciferase activities were measured after 24 hours, which were corrected with internal standard.

[2] = molecular target: T2, human type PPARδ ligand-binding domain fused with DNA-binding domain of yeast transcription factor (Homo sapiens, UniProt Q03181); experiment: Test of transactivation on PPAR (luciferase reporter, CHO cells), PPARδ; assay type: cell-based; details: luciferase activity after 24 hours, corrected with Renilla internal standard
T2 construct: expressed in transfected cells; host or cells: CHO cells
T2 sequence (Q03181 211-439 limits assumed): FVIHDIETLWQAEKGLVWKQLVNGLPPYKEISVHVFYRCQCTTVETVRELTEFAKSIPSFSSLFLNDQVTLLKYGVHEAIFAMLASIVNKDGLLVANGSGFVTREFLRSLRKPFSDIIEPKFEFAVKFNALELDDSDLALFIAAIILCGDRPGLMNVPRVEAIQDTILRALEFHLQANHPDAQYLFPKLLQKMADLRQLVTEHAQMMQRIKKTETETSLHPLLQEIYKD
Excerpt: as §1, §2

[3] = molecular target: T3, human type PPARα ligand-binding domain fused with DNA-binding domain of yeast transcription factor (Homo sapiens, UniProt Q07869); experiment: Test of transactivation on PPAR (luciferase reporter, CHO cells), PPARα; assay type: cell-based; details: luciferase activity after 24 hours, corrected with Renilla internal standard
T3 construct: expressed in transfected cells; host or cells: CHO cells
T3 sequence (Q07869 239-466 limits assumed): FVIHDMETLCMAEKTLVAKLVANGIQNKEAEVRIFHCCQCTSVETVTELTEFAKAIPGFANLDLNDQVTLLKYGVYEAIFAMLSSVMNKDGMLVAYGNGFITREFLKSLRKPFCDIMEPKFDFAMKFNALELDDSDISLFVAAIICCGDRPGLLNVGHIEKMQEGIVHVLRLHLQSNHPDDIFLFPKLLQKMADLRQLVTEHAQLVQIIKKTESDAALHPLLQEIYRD
Excerpt: as §1, §2

Structure (SMILES) | EC50 [1] [nM] | EC50 [2] [nM] | EC50 [3] [nM] | melting point [°C]
CCOc1ccc(CC(CC)C(=O)O)cc1CNC(=O)c1ccc(Oc2ccccn2)cc1 (racemic) [Example 26, 2-[[4-Ethoxy-3-[[[4-(2-pyridyloxy)phenyl]carbonylamino]-methyl]phenyl]methyl]butyric acid] | 410 | 190 | 44 | –
CCC(Cc1ccc(OC)c(C(=O)NCc2ccc(Oc3ccccn3)cc2)c1)C(=O)O (centres unmarked) [Example 18] | 9600 | > 100000 | 140 | 138 to 139
COc1ccc(CCC(=O)O)cc1C(=O)NCc1cccnc1 [Example 16, 3-[3-[N-(3-Pyridylmethyl)carbamoyl]-4-methoxyphenyl]propionic acid] | – | – | – | 175 to 176

Continued, values first:

EC50 [1] [nM] | EC50 [2] [nM] | EC50 [3] [nM] | melting point [°C] | Structure (SMILES)
550 | 210 | 60 | – | CCOc1ccc(CC(CC)C(=O)O)cc1CNC(=O)c1ccc(Oc2ccccn2)cc1 (single isomer, unassigned; (+)) [Example 27, (+)-2-[[4-Ethoxy-3-[[[4-(2-pyridyloxy)phenyl]carbonylamino]-methyl]phenyl]methyl]butyric acid]
580 | 1100 | 190 | – | CCOc1ccc(CC(CC)C(=O)O)cc1CNC(=O)c1ccc(Oc2ccccn2)cc1 (single isomer, unassigned; (-)) [Example 28, (−)-2-[[4-Ethoxy-3-[[[4-(2-pyridyloxy)phenyl]carbonylamino]methyl]phenyl]methyl]butyric acid]
5400 | 2200 | 340 | – | CCC(Cc1ccc(OC)c(CNC(=O)c2ccc(Oc3cccnc3)cc2)c1)C(=O)O (centres unmarked) [Example 23]

— patent US7176204B2, “Substituted carboxylic acid derivatives” (Kyorin Pahrmaceutical Co., Ltd., priority 2000, dated 2007)
